Source: US20230183333A1, “COMPOSITION FOR THE TREATMENT OF PHILADELPHIA CHROMOSOME-POSITIVE ACUTE LYMPHOBLASTIC LEUKEMIA” (priority 2020, published 2023)

T1: human interleukin 7 receptor (IL7R) on SUP-B15 Ph+ BCP-ALL cells (human, UniProt P16871 21-459)
T1 construct: whole, on cells; In the immunoprecipitation it comes from SUP-B15 lysate; also called IL7Rα; human IL7Rα
T1 sequence (looked up): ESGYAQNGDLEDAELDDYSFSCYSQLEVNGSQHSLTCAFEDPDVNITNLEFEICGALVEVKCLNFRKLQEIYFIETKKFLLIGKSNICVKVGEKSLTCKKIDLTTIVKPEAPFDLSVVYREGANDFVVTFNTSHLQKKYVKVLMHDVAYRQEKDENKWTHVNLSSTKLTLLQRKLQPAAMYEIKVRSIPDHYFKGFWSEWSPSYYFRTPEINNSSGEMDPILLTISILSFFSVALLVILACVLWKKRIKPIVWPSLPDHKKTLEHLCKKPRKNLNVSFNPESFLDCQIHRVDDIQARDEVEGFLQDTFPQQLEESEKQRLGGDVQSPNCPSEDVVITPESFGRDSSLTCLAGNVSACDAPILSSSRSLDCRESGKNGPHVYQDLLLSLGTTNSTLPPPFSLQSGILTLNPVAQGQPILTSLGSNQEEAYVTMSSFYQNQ

T2: mouse Jak3 in pre-B cells (mouse, UniProt Q62137 1-1100)
T2 construct: Detected in cells by PLA with an antibody from Cell Signaling
T2 sequence (looked up): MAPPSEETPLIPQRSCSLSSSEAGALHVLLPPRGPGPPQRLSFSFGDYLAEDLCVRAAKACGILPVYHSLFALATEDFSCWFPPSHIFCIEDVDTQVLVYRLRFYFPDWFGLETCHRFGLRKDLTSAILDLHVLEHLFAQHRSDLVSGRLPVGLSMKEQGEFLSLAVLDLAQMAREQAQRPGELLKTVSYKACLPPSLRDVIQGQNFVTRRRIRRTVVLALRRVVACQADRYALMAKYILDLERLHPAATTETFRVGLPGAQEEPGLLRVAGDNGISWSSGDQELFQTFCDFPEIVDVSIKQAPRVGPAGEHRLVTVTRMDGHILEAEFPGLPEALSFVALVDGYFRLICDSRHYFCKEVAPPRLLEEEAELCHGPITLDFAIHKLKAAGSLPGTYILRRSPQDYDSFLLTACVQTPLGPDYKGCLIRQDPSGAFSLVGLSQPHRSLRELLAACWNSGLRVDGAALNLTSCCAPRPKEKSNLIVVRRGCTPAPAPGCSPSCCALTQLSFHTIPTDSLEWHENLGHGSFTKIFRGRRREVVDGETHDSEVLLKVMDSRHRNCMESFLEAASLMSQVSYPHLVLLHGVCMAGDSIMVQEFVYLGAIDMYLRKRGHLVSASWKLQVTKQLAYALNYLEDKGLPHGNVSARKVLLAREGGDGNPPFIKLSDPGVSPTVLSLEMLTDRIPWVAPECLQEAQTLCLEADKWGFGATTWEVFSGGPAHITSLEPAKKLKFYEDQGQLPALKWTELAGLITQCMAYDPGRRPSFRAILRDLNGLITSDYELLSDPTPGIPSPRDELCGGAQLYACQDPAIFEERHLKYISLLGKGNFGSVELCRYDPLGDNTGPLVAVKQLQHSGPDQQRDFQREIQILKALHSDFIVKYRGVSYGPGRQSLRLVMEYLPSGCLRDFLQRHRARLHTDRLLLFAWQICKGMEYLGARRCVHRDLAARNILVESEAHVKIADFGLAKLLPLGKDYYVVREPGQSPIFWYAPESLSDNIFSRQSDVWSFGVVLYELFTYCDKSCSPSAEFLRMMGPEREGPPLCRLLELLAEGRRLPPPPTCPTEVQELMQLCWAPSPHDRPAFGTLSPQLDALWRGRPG

B1: IL7: cytokine that binds IL7Rα chain (protein)
chain: DCDIEGKDGKQYESVLMVSIDQLLDSMKEIGSNCLNNEFNFFKRHICDANKEGMFLFRAARKLRQFLKMNSTGDFDLHLLKVSEGTTILLNCTGQVKGRKPAALGEAQPTKSLEENKSLKEQKKLNDLCFLKRLLQEIKTCWNKILMGTKEH
B2: human CXCR4 on SUP-B15 cells (receptor, UniProt P61073 1-352, looked up)
chain: MEGISIYTSDNYTEEMGSGDYDSMKEPCFREENANFNKIFLPTIYSIIFLTGIVGNGLVILVMGYQKKLRSMTDKYRLHLSVADLLFVITLPFWAVDAVANWYFGNFLCKAVHVIYTVNLYSSVLILAFISLDRYLAIVHATNSQRPRKLLAEKVVYVGVWIPALLLTIPDFIFANVSEADDRYICDRFYPNDLWVVVFQFQHIMVGLILPGIVILSCYCIIISKLSHSKGHQKRKALKTTVILILAFFACWLPYYIGISIDSFILLEIIKQGCEFENTVHKWISITEALAFFHCCLNPILYAFLGAKFKTSAQHALTSVSRGSSLKILSKGKRGGHSSVSTESESSSFHSS
notes: whole, on cells; In the immunoprecipitation it comes from SUP-B15 lysate; also called C-X-C chemokine receptor 4
B3: mouse IL7R on bone marrow-derived pre-B cells (WT or BCR-ABL1 transformed) (receptor, UniProt P16872 21-459, looked up)
chain: ESGNAQDGDLEDADADDHSFWCHSQLEVDGSQHLLTCAFNDSDINTANLEFQICGALLRVKCLTLNKLQDIYFIKTSEFLLIGSSNICVKLGQKNLTCKNMAINTIVKAEAPSDLKVVYRKEANDFLVTFNAPHLKKKYLKKVKHDVAYRPARGESNWTHVSLFHTRTTIPQRKLRPKAMYEIKVRSIPHNDYFKGFWSEWSPSSTFETPEPKNQGGWDPVLPSVTILSLFSVFLLVILAHVLWKKRIKPVVWPSLPDHKKTLEQLCKKPKTSLNVSFNPESFLDCQIHEVKGVEARDEVESFLPNDLPAQPEELETQGHRAAVHSANRSPETSVSPPETVRRESPLRCLARNLSTCNAPPLLSSRSPDYRDGDRNRPPVYQDLLPNSGNTNVPVPVPQPLPFQSGILIPVSQRQPISTSSVLNQEEAYVTMSSFYQNK
notes: whole, on cells; also called IL7Rα
B4: mouse CXCR4 on bone marrow-derived pre-B cells (WT or BCR-ABL1 transformed) (receptor, UniProt P70658 1-359, looked up)
chain: MEPISVSIYTSDNYSEEVGSGDYDSNKEPCFRDENVHFNRIFLPTIYFIIFLTGIVGNGLVILVMGYQKKLRSMTDKYRLHLSVADLLFVITLPFWAVDAMADWYFGKFLCKAVHIIYTVNLYSSVLILAFISLDRYLAIVHATNSQRPRKLLAEKAVYVGVWIPALLLTIPDFIFADVSQGDISQGDDRYICDRLYPDSLWMVVFQFQHIMVGLILPGIVILSCYCIIISKLSHSKGHQKRKALKTTVILILAFFACWLPYYVGISIDSFILLGVIKQGCDFESIVHKWISITEALAFFHCCLNPILYAFLGAKFKSSAQHALNSMSRGSSLKILSKGKRGGHSSVSTESESSSFHSS
notes: whole, on cells

Columns and labels:
[1] = test system: BCR-ABL1 transformed cells; experiment: Imatinib-induced cell death in the presence of cytokine/chemokine (viability, cell cycle); type: cell-based, mouse; details: added together with 1 μM imatinib
Method: BM cells from WT (n=7, female), IL7Rα^Δ (n=7, female), IL7Rα^fl/fl (n=7, female), CXCR4^fl/fl (n=3, female) and FoxO1^fl/fl (n=3, female) mice were collected and retrovirally transformed with either an empty pMIG vector or with a pMIG vector expressing BCR-ABL1. Unless mentioned otherwise, cells were cultured for 3 to 7 days in Iscove's medium (Biochrom AG) containing 10% heat-inactivated FCS (Sigma-Aldrich), 2 mM 1-glutamine, 100 U/ml penicillin (Gibco), 100 U/ml streptomycin (Gibco), and 50 μM 2-mercaptoethanol. The medium was supplemented in excess with the supernatant of J558L plasmacytoma cells stably transfected with a vector encoding murine IL7. Transformed cells were selected by IL7 withdrawal and kept in optimum conditions^38. Retroviral vectors containing either constitutively active STAT5 (STAT5-CA)^34 or an empty vector were used to transduce BCR-ABL1-transformed cells and sorted cells were used then for western blot or flow cytometry analysis. 1-2μM 4-hydroxy tamoxifen (Tam) (Sigma-Aldrich) was used to induce deletion on plasmids expressing tamoxifen-inducible form of Cre (Cre-ER^T2)^14. All cells were tested and found free from mycoplasma.
Antibodies for flow cytometry (CD19, IL7R, CXCR4, FoxO1 and CD11b) were purchased from (eBiosciences, BioLegend, Invitrogen or Cell Signaling). Intracellular flow cytometry staining was performed using Fix and Perm cell permeabilization kit (ADG). Cell viability was measured using Sytox® blue dead cell stain (Life Technologies). FACS Cantoll (BD Biosciences) was used for flow cytometry, and FlowJo v.10.1 was used for data analysis.

[2] = test system: BCR-ABL1 transformed cells; experiment: CXCL12-induced Ca2+ flux; type: cell-based, mouse; details: CXCL12 100 ng/ml
Method: A total of 1×10^6 cells were loaded with Indo-1 AM (Invitrogen) and used for Ca^2+ analyses^62. 100 ng/m1 of CXCL12 was used for stimulation

[3] = test system: human Ph+ ALL SUP-B15 cell line; experiment: IL7R and CXCR4 surface expression after imatinib in a human Ph+ ALL cell line; type: cell-based; details: 5 μM imatinib, day 7, surface expression
Method: 68 BCR-ABL+ ALL patients were treated according to European intergroup study of post-induction treatment of Philadelphia-chromosome-positive ALL (EsPhALL) 2004 and 2010 protocols (NCT00287105) and ALL-Berlin-Frankfurt-Münster (BFM) 2000 (NCT00430118) study. Informed consent was obtained according to institutional regulations, in accordance with the Declaration of Helsinki. 697, SUP-B15, and TOM-1 cell lines were obtained from DSMZ. Ph+ ALL cells containing T3151 mutation was kindly provided by M. Miischen (Shojaee, S., et al. Nat Med 22, 379-387 (2016)).

[4] = molecular target: T1, human interleukin 7 receptor (IL7R) on …; experiment: Fab-PLA on SUP-B15 cells in comparison to Ramos cells
[5] = molecular target: T2, mouse Jak3 in pre-B cells; experiment: proximity ligation assay on mouse WT and BCR-ABL1 transformed pre-B cells
[6] = molecular target: T2, mouse Jak3 in pre-B cells; experiment: proximity ligation assay on mouse BCR-ABL1 transformed pre-B cells
[7] = molecular target: B3; experiment: proximity ligation assay on mouse pre-B cells

Molecule: TSLP: the ligand for CRLF2
- effect on imatinib-induced cell death [1]: unable to rescue BCR-ABL1 transformed cells from inhibitor-induced cell death

Molecule: c1cc(CN2CCCNCCNCCCNCC2)ccc1CN1CCCNCCNCCCNCC1 [AMD3100]
- CXCL12-induced Ca2+ response [2]: prevented the Ca^2+ response
- effect on imatinib-induced cell death [1]: did not affect imatinib treatment

Molecule: CXCL12: chemokine, the ligand for CXCR4
- effect on imatinib-induced cell death [1]: did not affect imatinib treatment

Molecule: Cc1ccc(NC(=O)c2ccc(CN3CCN(C)CC3)cc2)cc1Nc1nccc(-c2cccnc2)n1 [imatinib]
- expression of IL7R and CXCR4 [3]: upregulated IL7R and CXCR4

Molecule: B1
- effect on imatinib-induced cell death [1]: counteracted imatinib-induced cell death and restored the cell cycle progression

Molecule: B2
- binding result [4]: binds

Molecule: B3
- binding result [5]: binds

Molecule: B4
- binding result [6]: binds
- binding result [7]: binds
